Data as given in patent EP0314302A2, “Herbicidal o-carbomethoxy-sulfonylureas” (E.I. DU PONT DE NEMOURS AND COMPANY, priority 1987, dated 1989).

Columns and labels:
Morningglory = assay: Test 11 windowsill flats, postemergence; assay type: in vivo, Ipomoea spp.; conditions: Postemergence 32 g/ha, 0.25% X-77 surfactant, scale 0-100
Protocol: (§1) Budded citrus seedlings were planted in 30-liter plastic pots which were also seeded with sandbur, guineagrass, narrowleaf panicum, common ragweed, yellow nutsedge, purple nutsedge and bindweed. Compound I was applied preemergence and postemergence to the weeds. Treatments were sprayed to simulate the trunk-to-trunk herbicide application method used in some citrus groves. The compound was also applied postemergence to weeds grown in windowsill flats. The flats were filled with planting medium and seeded with morningglory (Ipomoea spp.). purple nutsedge (Cyperus rotundus), pigweed (Amaranthus spp.), bindweed (Convolvulus spp.), narrowleaf panicum (Panicum maximum), common ragweed (Ambrosia artemisiifolia), sandbur (Cenchrus echinatus), itchgrass (Rottboellia exaltata), johnsongrass (Sorghum halepense), guineagrass (Panicum maximum), smooth crabgrass (Digitaria ischaemum), broadleaf signalgrass (Brachiaria platyphylla), bermudagrass (Cynodon dactylon), goosegrass (Eleusine indica), large crabgrass (Digitaria sanguinalis) and yellow nutsedge (Cyperus esculentus).
(§2) The compound was formulated and sprayed with 0.25% X-77 surfactant in water. Plants were visually rated 21 and 29 days after treatment and compared with appropriate controls. Injury ratings were based on the scale of 0 to 100, where 0 indicates no effect, 20 indicates minimum effect and 100 indicates complete control. […]

Kentucky bluegrass = assay: Test 7 postemergence; assay type: in vivo, Poa pratensis; conditions: scale 0-100
Protocol: (§3) Individual 11.4-cm plastic pots filled with planting medium were seeded with rape, wild radish (Raphanus raphanistruna). tansy mustard (Descurainia pinnata), ball mustard (Neslia paniculata), black mustard (Brassica nigra), yellow mustard, brown mustard, lentils, safflower, flax, sunflower, peanut, vetch, alfalfa, field bean, pea, violet (Viola spp), Kochia (Kochia spp), Russian thistle (Salsola spp), Matricaria spp, groundsel (Senecio spp), shepherdspurse (Capsella bursa-pastoris), nightshade (Solanum spp), sowthistle (Sonchus spp), sugar beet, wheat, "Bonanza" barley and "Morex" barley, Kentucky bluegrass (Poa pratensis), red clover (Trifolium pratense), dandelion (Taraxacum spp) and buckhorn plantain (Plantago lanceolata).
(§4) Plants were treated postemergence with the compound formulated with a non-phytotoxic carrier. Plants were visually rated 18 days after treatment (DAT). Response ratings were based on the scale of 0 to 100 where 0 = no effect, 20 = minimal injury and 100 = complete control.

Johnsongrass = assay: Test 11 windowsill flats, postemergence; assay type: in vivo, Sorghum halepense; conditions: Postemergence 32 g/ha, 0.25% X-77 surfactant, scale 0-100
Protocol: as §1, §2

Sandbur = assay: Test 11 windowsill flats, postemergence; assay type: in vivo, Cenchrus echinatus; conditions: Postemergence 32 g/ha, 0.25% X-77 surfactant, scale 0-100
Protocol: as §1, §2

Cirsium arvense = assay: Test 2 perennial weeds from rhizomes; assay type: in vivo; conditions: 0.5% v/v non-ionic surfactant, scale 0-100
Protocol: (§5) Rhizomes of Agropyron repens and Cirsium arvense were planted in 17.5-cm plastic pots and grown in the greenhouse for 5 months prior to herbicide application. Plants were 24 to 35 cm tall and releasing lateral buds at the time of treatment. Compound I was diluted in water containing 0.5% v/v non-ionic surfactant and applied to the plants. The degree of weed control was visually rated 36 days after application of the herbicide. Control ratings were based upon comparison to an untreated control using a scale of 0 to 100 where 0 indicated no effect and […] represented death of all foliar portions with no regrowth apparent.

Agropyron repens = assay: Test 2 perennial weeds from rhizomes; assay type: in vivo; conditions: 0.5% v/v non-ionic surfactant, scale 0-100
Protocol: as §5

Common ragweed = assay: Test 11 citrus pots, preemergence to the weeds; assay type: in vivo, Ambrosia artemisiifolia; conditions: Preemergence 32 g/ha; 0.25% X-77 surfactant; scale 0-100
Protocol: as §1, §2

Rape = assay: Test 10 postemergence safety to crops and weed control; assay type: in vivo; conditions: 16 g/ha, scale 0-100
Protocol: (§6) The object of these tests was to evaluate the compound of this invention for postemergence safety to crops and weed control. Seedling and budded Macedine grapes were grown in 11.4-cm pots. Flax, green foxtail (Setaria viridis), "Morex" barley, wild oats (Avena fatua), "Era" wheat, annual ryegrass (Lolium multiflorum), wild radish (Raphanus raphanistrum), rape, sunflower, chickweed (Stellaria media) and wild buckwheat (Polygonum convolvulus) were seeded in windowsill pots.
(§7) The plants were sprayed postemergence with Compound I in a non-phytotoxic solvent. Plants were visually rated 15 and 27 days after treatment (DAT). Injury and weed control ratings were based on the scale of 0 to 100 where 0 = no effect, 20 minimal control and 100 = complete control.

Era wheat = assay: as above; assay type: in vivo; conditions: 16 g/ha, scale 0-100
Protocol: as §6, §7

Flax = assay: as above; assay type: in vivo; conditions: 16 g/ha, scale 0-100
Protocol: as §6, §7

Sunflower = assay: as above; assay type: in vivo; conditions: 16 g/ha, scale 0-100
Protocol: as §6, §7

Morex barley = assay: as above; assay type: in vivo; conditions: 16 g/ha, scale 0-100
Protocol: as §6, §7

Lalang = assay: Test 9 postemergence; assay type: in vivo; conditions: scale 0-100
Itchgrass = assay: Test 5 sugarcane injury and weed control, postemergence; assay type: in vivo, Rottboellia exaltata; conditions: scale 0-100
Protocol: Sugarcane (Saccharum spp.) cuttings which had been pre-sprouted were planted in 15-cm plastic pots. Narrowleaf panicum (Panicum maximum), large crabgrass (Digitaria sanguinalis), guineagrass (P. maximum) and itchgrass (Rottboellia exaltata) were seeded in individual 15-cm plastic pots.
The pots were treated postemergence when the plants had 3 to 4 leaves with 2 to 3 tillers with Compound I formulated in a non-phytotoxic carrier made up of acetone-humectant-water-surfactant (22:1:1:0.05 v/v). The degree of crop injury and weed control was visually rated 27 days after treatment (DAT). Plant injury ratings are based on the scale of 0 to 100 where 0 = no effect, 20 = minimal injury and 100 = complete control.

Russian thistle = assay: Test 7 postemergence; assay type: in vivo, Salsola spp; conditions: scale 0-100
Protocol: as §3, §4

## COC(=O)c1cccnc1S(=O)(=O)NC(=O)Nc1nc(OC)cc(OC)n1 [Compound I, 2-[[(4,6-dimethoxypyrimidin-2-yl)aminocarbonyl]aminosulfonyl]-3-pyridinecarboxylic acid, methyl ester]
Morningglory
  Injury ratings: 90
Kentucky bluegrass; 16 g/ha
  Plant Injury Rating 18 DAT: 100
Kentucky bluegrass; 32 g/ha
  Plant Injury Rating 18 DAT: 100
Johnsongrass
  Injury ratings: 100
Sandbur
  Injury ratings: 100
Cirsium arvense; 16 g/ha
  Control ratings 36 DAT: 40
Cirsium arvense; 32 g/ha
  Control ratings 36 DAT: 50
Cirsium arvense; 64 g/ha
  Control ratings 36 DAT: 50
Agropyron repens; 16 g/ha
  Control ratings 36 DAT: 85
Agropyron repens; 32 g/ha
  Control ratings 36 DAT: 90
Agropyron repens; 64 g/ha
  Control ratings 36 DAT: 95
Common ragweed
  Injury ratings: 20
Rape
  Plant Injury Rating 15 DAT: 100
Era wheat
  Plant Injury Rating 15 DAT: 100
Flax
  Plant Injury Rating 15 DAT: 100
Sunflower
  Plant Injury Rating 15 DAT: 100
Morex barley
  Plant Injury Rating 15 DAT: 100
Lalang; 8 g/ha
  Plant Injury Rating 22 DAT: 0
Lalang; 16 g/ha
  Plant Injury Rating 22 DAT: 0
Lalang; 32 g/ha
  Plant Injury Rating 22 DAT: 20
Itchgrass; 8 g/ha
  Plant Injury Rating 27 DAT: 80
Itchgrass; 16 g/ha
  Plant Injury Rating 27 DAT: 80
Itchgrass; 32 g/ha
  Plant Injury Rating 27 DAT: 100
Itchgrass; 64 g/ha
  Plant Injury Rating 27 DAT: 100
Russian thistle; 16 g/ha
  Plant Injury Rating 18 DAT: 100
Russian thistle; 32 g/ha
  Plant Injury Rating 18 DAT: 100
